What was measured:
Assay type in all cases: in vivo
[1] = test system: barnyardgrass (Echinochloa crus-galli); assay: Test A preemergence, barnyardgrass; details: 0 to 100 scale (0 no effect, 100 complete control)
From the text: (§1) Seeds of barnyardgrass (Echinochloa crus-galli), large crabgrass (Digitaria sanguinalis), giant foxtail (Setaria faberi), morningglory (Ipomoea spp.), pigweed (Amaranthus retroflexus), velvetleaf (Abutilon theophrasti), wheat (Triticum aestivum), and corn (Zea mays) were planted into a blend of loam soil and sand and treated preemergence with a directed soil spray using test chemicals formulated in a non-phytotoxic solvent mixture which included a surfactant. At the same time these species were also treated with postemergence applications of test compounds formulated in the same manner. Plants ranged in height from two to ten cm and were in the one- to two-leaf stage for the postemergence treatment. Treated plants and untreated controls were maintained in a greenhouse for approximately ten days, after which time all treated plants were compared to untreated controls and visually evaluated for injury. Plant response ratings, summarized in Table A, are based on a 0 to 100 scale where 0 is no effect and 100 is complete control. A dash (-) response means no test result.

[2] = test system: large crabgrass (Digitaria sanguinalis); assay: Test A preemergence, large crabgrass; details: 0 to 100 scale (0 no effect, 100 complete control)
From the text: as §1

[3] = test system: giant foxtail (Setaria faberi); assay: Test A preemergence, giant foxtail; details: 0 to 100 scale (0 no effect, 100 complete control)
From the text: as §1

[4] = test system: morningglory (Ipomoea spp.); assay: Test A preemergence, morningglory; details: 0 to 100 scale (0 no effect, 100 complete control)
From the text: as §1

[5] = test system: pigweed (Amaranthus retroflexus); assay: Test A preemergence, pigweed; details: 0 to 100 scale (0 no effect, 100 complete control)
From the text: as §1

[6] = test system: velvetleaf (Abutilon theophrasti); assay: Test A preemergence, velvetleaf; details: 0 to 100 scale (0 no effect, 100 complete control)
From the text: as §1

[7] = test system: wheat (Triticum aestivum); assay: Test A preemergence, wheat; details: 0 to 100 scale (0 no effect, 100 complete control)
From the text: as §1

corn (Zea mays) [8] = assay: Test A preemergence, corn; details: 0 to 100 scale (0 no effect, 100 complete control)
From the text: as §1

[9] = test system: barnyardgrass (Echinochloa crus-galli); assay: Test A postemergence, barnyardgrass; details: 0 to 100 scale (0 no effect, 100 complete control)
From the text: as §1

[10] = test system: large crabgrass (Digitaria sanguinalis); assay: Test A postemergence, large crabgrass; details: 0 to 100 scale (0 no effect, 100 complete control)
From the text: as §1

[11] = test system: giant foxtail (Setaria faberi); assay: Test A postemergence, giant foxtail; details: 0 to 100 scale (0 no effect, 100 complete control)
From the text: as §1

[12] = test system: morningglory (Ipomoea spp.); assay: Test A postemergence, morningglory; details: 0 to 100 scale (0 no effect, 100 complete control)
From the text: as §1

[13] = test system: pigweed (Amaranthus retroflexus); assay: Test A postemergence, pigweed; details: 0 to 100 scale (0 no effect, 100 complete control)
From the text: as §1

[14] = test system: velvetleaf (Abutilon theophrasti); assay: Test A postemergence, velvetleaf; details: 0 to 100 scale (0 no effect, 100 complete control)
From the text: as §1

[15] = test system: wheat (Triticum aestivum); assay: Test A postemergence, wheat; details: 0 to 100 scale (0 no effect, 100 complete control)
From the text: as §1

corn (Zea mays) [16] = assay: Test A postemergence, corn; details: 0 to 100 scale (0 no effect, 100 complete control)
From the text: as §1

rice (Oryza sativa) = assay: Test B flooded paddy test, rice; details: Flood, scale 0 to 100
From the text: (§2) Plant species in the flooded paddy test consisted of rice (Oryza sativa), umbrella sedge (Cyperus difformis), ducksalad (Heteranthera limosa) and barnyardgrass (Echinochloa crus-galli) grown to the 2-leaf stage for testing. At time of treatment, test pots were flooded to 3 cm above the soil surface, treated by application of test compounds directly to the paddy water, and then maintained at that water depth for the duration of the test. Treated plants and controls were maintained in a greenhouse for 13 to 15 days, after which time all species were compared to controls and visually evaluated. Plant response ratings, summarized in Table B, are based on a scale of 0 to 100 where 0 is no effect and 100 is complete control. A dash (-) response means no test result.

[17] = test system: umbrella sedge (Cyperus difformis); assay: Test B flooded paddy test, umbrella sedge; details: Flood, scale 0 to 100
From the text: as §2

[18] = test system: ducksalad (Heteranthera limosa); assay: Test B flooded paddy test, ducksalad; details: Flood, scale 0 to 100
From the text: as §2

[19] = test system: barnyardgrass (Echinochloa crus-galli); assay: Test B flooded paddy test, barnyardgrass; details: Flood
From the text: as §2

[20] = 250 g ai/ha, scale 0 to 100 (0 no effect, 100 complete control)

`CC1(C)CC([S+]([O-])Cc2c(C(F)(F)C(F)(F)F)nc3n(c2=O)CCCC3)=NO1` (centres unmarked) [Compound 19] was tested, and the “Plant response rating, Barnyardgrass” value ([1]; 125 g ai/ha) was 0, the “Plant response rating, Barnyardgrass” value ([1]; 500 g ai/ha) was 80 and the “Plant response rating, Crabgrass, Large” value ([2]; 125 g ai/ha) was 0. For the same molecule, the “Plant response rating, Crabgrass, Large” value ([2]; 500 g ai/ha) was 80, the “Plant response rating, Foxtail, Giant” value ([3]; 125 g ai/ha) was 0 and the “Plant response rating, Foxtail, Giant” value ([3]; 500 g ai/ha) was 80. The “Plant response rating, Morningglory” value ([4]; 125 g ai/ha) was 0, the “Plant response rating, Morningglory” value ([4]; 500 g ai/ha) was 60 and the “Plant response rating, Pigweed” value ([5]; 125 g ai/ha) was 0. For the same molecule, the “Plant response rating, Pigweed” value ([5]; 500 g ai/ha) was 20, the “Plant response rating, Velvetleaf” value ([6]; 125 g ai/ha) was 0 and the “Plant response rating, Velvetleaf” value ([6]; 500 g ai/ha) was 0. For the same molecule, the “Plant response rating, Wheat” value ([7]; 125 g ai/ha) was 0, the “Plant response rating, Wheat” value ([7]; 500 g ai/ha) was 20 and the “Plant response rating, Corn” value (corn (Zea mays) [8]; 500 g ai/ha) was 20. The “Plant response rating, Barnyardgrass” value ([9]; 125 g ai/ha) was 10, the “Plant response rating, Barnyardgrass” value ([9]; 500 g ai/ha) was 70 and the “Plant response rating, Crabgrass, Large” value ([10]; 125 g ai/ha) was 0. The “Plant response rating, Crabgrass, Large” value ([10]; 500 g ai/ha) was 30, the “Plant response rating, Foxtail, Giant” value ([11]; 125 g ai/ha) was 0 and the “Plant response rating, Foxtail, Giant” value ([11]; 500 g ai/ha) was 50. The “Plant response rating, Morningglory” value ([12]; 125 g ai/ha) was 0, the “Plant response rating, Morningglory” value ([12]; 500 g ai/ha) was 20 and the “Plant response rating, Pigweed” value ([13]; 125 g ai/ha) was 0. The “Plant response rating, Pigweed” value ([13]; 500 g ai/ha) was 10, the “Plant response rating, Velvetleaf” value ([14]; 125 g ai/ha) was 0 and the “Plant response rating, Velvetleaf” value ([14]; 500 g ai/ha) was 20. The “Plant response rating, Wheat” value ([15]; 125 g ai/ha) was 0, the “Plant response rating, Wheat” value ([15]; 500 g ai/ha) was 20 and the “Plant response rating, Corn” value (corn (Zea mays) [16]; 125 g ai/ha) was 0. For the same molecule, the “Plant response rating, Corn” value (corn (Zea mays) [16]; 500 g ai/ha) was 40, the “Plant response rating, Rice” value (rice (Oryza sativa); 31 g ai/ha) was 0 and the “Plant response rating, Rice” value (rice (Oryza sativa); 62 g ai/ha) was 0. The “Plant response rating, Rice” value (rice (Oryza sativa); 125 g ai/ha) was 0, the “Plant response rating, Rice” value (rice (Oryza sativa); 250 g ai/ha) was 0 and the “Plant response rating, Sedge, Umbrella” value ([17]; 31 g ai/ha) was 0. The “Plant response rating, Sedge, Umbrella” value ([17]; 62 g ai/ha) was 0, the “Plant response rating, Sedge, Umbrella” value ([17]; 125 g ai/ha) was 0 and the “Plant response rating, Sedge, Umbrella” value ([17]; 250 g ai/ha) was 0. The “Plant response rating, Ducksalad” value ([18]; 31 g ai/ha) was 0, the “Plant response rating, Ducksalad” value ([18]; 62 g ai/ha) was 0 and the “Plant response rating, Ducksalad” value ([18]; 125 g ai/ha) was 0. For the same molecule, the “Plant response rating, Ducksalad” value ([18]; 250 g ai/ha) was 0, the “Plant response rating, Barnyardgrass” value ([19]; 31 g ai/ha, scale 0 to 100) was 0 and the “Plant response rating, Barnyardgrass” value ([19]; 62 g ai/ha, scale 0 to 100) was 0. For the same molecule, the “Plant response rating, Barnyardgrass” value ([19]; 125 g ai/ha, scale 0 to 100) was 0 and the “Plant response rating, Barnyardgrass” value [19, 20] was 0.

In the case of `CC1(C)CC(S(=O)(=O)Cc2c(C(F)(F)F)nc3n(c2=O)CCCCC3)=NO1` [Compound 33], the “Plant response rating, Barnyardgrass” value ([1]; 125 g ai/ha) is reported as 40, the “Plant response rating, Barnyardgrass” value ([1]; 500 g ai/ha) is reported as 90 and the “Plant response rating, Crabgrass, Large” value ([2]; 125 g ai/ha) is reported as 90. For the same molecule, the “Plant response rating, Crabgrass, Large” value ([2]; 500 g ai/ha) was 100, the “Plant response rating, Foxtail, Giant” value ([3]; 125 g ai/ha) was 90 and the “Plant response rating, Foxtail, Giant” value ([3]; 500 g ai/ha) was 100. The “Plant response rating, Morningglory” value ([4]; 125 g ai/ha) was 20, the “Plant response rating, Morningglory” value ([4]; 500 g ai/ha) was 50 and the “Plant response rating, Pigweed” value ([5]; 125 g ai/ha) was 10. The “Plant response rating, Pigweed” value ([5]; 500 g ai/ha) was 100, the “Plant response rating, Velvetleaf” value ([6]; 125 g ai/ha) was 30 and the “Plant response rating, Velvetleaf” value ([6]; 500 g ai/ha) was 60. The “Plant response rating, Wheat” value ([7]; 125 g ai/ha) was 0, the “Plant response rating, Wheat” value ([7]; 500 g ai/ha) was 50 and the “Plant response rating, Corn” value (corn (Zea mays) [8]; 125 g ai/ha) was 0. For the same molecule, the “Plant response rating, Corn” value (corn (Zea mays) [8]; 500 g ai/ha) was 0, the “Plant response rating, Barnyardgrass” value ([9]; 125 g ai/ha) was 50 and the “Plant response rating, Barnyardgrass” value ([9]; 500 g ai/ha) was 80. For the same molecule, the “Plant response rating, Crabgrass, Large” value ([10]; 125 g ai/ha) was 50, the “Plant response rating, Crabgrass, Large” value ([10]; 500 g ai/ha) was 80 and the “Plant response rating, Foxtail, Giant” value ([11]; 125 g ai/ha) was 70. The “Plant response rating, Foxtail, Giant” value ([11]; 500 g ai/ha) was 80, the “Plant response rating, Morningglory” value ([12]; 125 g ai/ha) was 40 and the “Plant response rating, Morningglory” value ([12]; 500 g ai/ha) was 60. The “Plant response rating, Pigweed” value ([13]; 125 g ai/ha) was 20, the “Plant response rating, Pigweed” value ([13]; 500 g ai/ha) was 50 and the “Plant response rating, Velvetleaf” value ([14]; 125 g ai/ha) was 0. For the same molecule, the “Plant response rating, Velvetleaf” value ([14]; 500 g ai/ha) was 20, the “Plant response rating, Wheat” value ([15]; 125 g ai/ha) was 0 and the “Plant response rating, Wheat” value ([15]; 500 g ai/ha) was 40. For the same molecule, the “Plant response rating, Corn” value (corn (Zea mays) [16]; 125 g ai/ha) was 0, the “Plant response rating, Corn” value (corn (Zea mays) [16]; 500 g ai/ha) was 0 and the “Plant response rating, Rice” value (rice (Oryza sativa); 31 g ai/ha) was 0. For the same molecule, the “Plant response rating, Rice” value (rice (Oryza sativa); 62 g ai/ha) was 0, the “Plant response rating, Rice” value (rice (Oryza sativa); 125 g ai/ha) was 0 and the “Plant response rating, Rice” value (rice (Oryza sativa); 250 g ai/ha) was 25. For the same molecule, the “Plant response rating, Sedge, Umbrella” value ([17]; 31 g ai/ha) was 0, the “Plant response rating, Sedge, Umbrella” value ([17]; 62 g ai/ha) was 20 and the “Plant response rating, Sedge, Umbrella” value ([17]; 125 g ai/ha) was 60. The “Plant response rating, Sedge, Umbrella” value ([17]; 250 g ai/ha) was 80, the “Plant response rating, Ducksalad” value ([18]; 31 g ai/ha) was 0 and the “Plant response rating, Ducksalad” value ([18]; 62 g ai/ha) was 0. The “Plant response rating, Ducksalad” value ([18]; 125 g ai/ha) was 20, the “Plant response rating, Ducksalad” value ([18]; 250 g ai/ha) was 50 and the “Plant response rating, Barnyardgrass” value ([19]; 31 g ai/ha, scale 0 to 100) was 0. The “Plant response rating, Barnyardgrass” value ([19]; 62 g ai/ha, scale 0 to 100) was 0, the “Plant response rating, Barnyardgrass” value ([19]; 125 g ai/ha, scale 0 to 100) was 0 and the “Plant response rating, Barnyardgrass” value [19, 20] was 35.

Source: patent publication US20100099561A1, “HETEROBICYCLIC ALKYLTHIO-BRIDGED ISOXAZOLINES” (E.I. DU PONT DE NEMOURS AND COMPANY, priority 2008, published 2010)
